Measured values as given in US20240352502A1, “ANALYTICAL METHODS FOR BACTERIAL IDENTIFICATION AND ANTIBIOTIC SUSCEPTIBILITY TESTING IN BIOLOGICAL SAMPLES” (UNIVERSITY OF SCIENCE AND TECHNOLOGY OF CHINA, priority 2021, published 2024).

Tested on: E. coli
Assay: Antibiotic susceptibility test of a single living bacterium in whole blood by single-bacterium mass spectrometry (metabolite signal change)
Format: cell-based, Escherichia coli
Settings: E. coli from whole blood supernatant; 10 μL of 8 mg/mL kanamycin or 10 μL of 2 mg/mL norfloxacin added into 500 μL; 30 min at 37° C.; FIG. 12
Experimental: 1 mL of whole blood was taken and placed in a centrifuge tube, centrifuged at 3000 rpm for 8 min; the blood cell pellet was discarded; 10 μL of 8 mg/mL kanamycin and 10 μL of 2 mg/mL norfloxacin were respectively added into 500 μL of the supernatant containing the bacterium, and incubated with shaking at 37° C. After 30 min of incubation, the supernatant was centrifuged at 10,000 rpm for 8 min; the supernatant was discarded, and the pellet was resuspended in 100 μL of deionized water; the solution containing the bacterium not having been incubated with the antibiotic was used as a reference group, and the same operations as above were performed. […]
10 μL of 100 μM Acridine Orange as a staining agent was added into the solution containing the bacterium obtained in step (1) and step (2) to perform staining for 15 min. […] The resuspended solution containing the bacterium was dropped onto a polylysine slide and leave for 30 minutes to allow the bacterium to be adsorbed and fixed on the polylysine slide, and then the polylysine slide was rinsed with deionized water and dried at room temperature; the location of bacteria was observed under a fluorescence microscope. […]

## CCn1cc(C(=O)O)c(=O)c2cc(F)c(N3CCNCC3)cc21 [norfloxacin]
  change of alanyl-threonine (m/z 191) signal in a single bacterium after incubation with antibiotic: significantly reduced
